Results reported in publication PMC8619914, “Development of Novel Peptides for the Antimicrobial Combination Therapy against Carbapenem-Resistant Acinetobacter baumannii Infection” (Pharmaceutics, 2021).

Experiments:
[1] = test system: Acinetobacter baumannii (KCCM 40203); assay: microbe, parasite or virus in culture; conditions: 16 h
Source text: (§1) The Gram-negative bacterial strain Escherichia coli (KCTC 1682) and Gram-positive bacterial strain Staphylococcus aureus (KCTC 1621) were purchased from the Korean Collection for Type Cultures (Jeongeup, Korea). Acinetobacter baumannii (KCCM 40203) were purchased from Korea Culture Center of Microorganisms (Seoul, Korea). Additionally, five carbapenem-resistant Acinetobacter baumanii C1–C5 (CRAB C1–C5), which have the OXA-23 gene with carbapenem-resistance were collected from the patients with CRAB bacteremia, who presented symptoms and signs of infection at Korea University Anam Hospital (Seoul, Korea) (IRB registration no. 2020AN0157). The minimum inhibitory concentrations (MIC) of the AMP and antibiotics against the various bacterial strains were assessed using the serial dilution method on Muller–Hinton (MH) media, as described previously. […] Absorbance at 600 nm was measured using a SpectraMAX microplate reader (Molecular Devices, San Jose, CA, USA).
(§2) Measurement of the minimum inhibitory concentrations (MIC) was conducted to determine the effect of the hydrophobicity of each antimicrobial peptide on its antimicrobial activity. MIC was defined as the minimum concentration that killed more than 99% of bacteria; it was measured against two standard Gram-negative bacteria (E. coli and A. baumanii), five clinically isolated CRAB (C1–C5), and one Gram-positive bacteria (S. aureus).

CRAB C1 [2] = assay: microbe, parasite or virus in culture; conditions: 16 h
Source text: as §1, §2

CRAB C2 = assay: microbe, parasite or virus in culture; conditions: MH media, 2 × 10^5 CFU·mL^−1, 37 °C, 16 h, absorbance 600 nm
Source text: as §1, §2

CRAB C3 = assay: microbe, parasite or virus in culture; conditions: MH media, 2 × 10^5 CFU·mL^−1, 37 °C, 16 h, absorbance 600 nm
Source text: as §1, §2

CRAB C4 = assay: microbe, parasite or virus in culture; conditions: MH media, 2 × 10^5 CFU·mL^−1, 37 °C, 16 h, absorbance 600 nm
Source text: as §1, §2

CRAB C5 = assay: microbe, parasite or virus in culture; conditions: MH media, 2 × 10^5 CFU·mL^−1, 37 °C, 16 h, absorbance 600 nm
Source text: as §1, §2

[3] = test system: Gram-negative bacterial strains; assay: organism not typed
Source text: as §1
Geometric means (GM) were calculated to compare the relative antimicrobial activities of the analogs against Gram-negative bacteria. […] Next, the antibacterial mechanisms of peptides were investigated.

intact CRAB C1 = assay: Membrane depolarization, diSC3-5, intact cells; type: cell-based, carbapenem-resistant Acinetobacter baumannii; conditions: peptide 4 μg·mL^−1, 100% = 1% triton X-100
Description: The membrane depolarization activity of each AMPs at varying concentrations (1–16 μg·mL^−^1) against CRAB C1 intact cells were measured using 3,3′-dipropylthiadicarbocyanine iodide (diSC3-5). CRAB C1 was washed two times in washing buffer (5 mM HEPES, 20 mM glucose, pH 7.4), the experiment buffer was changed (5 mM HEPES, 20 mM glucose, 0.1 M KCl, pH 7.4), and diSC3-5 dye was added. As a control, 100% depolarization was obtained by treating CRAB C1 with 1% triton X-100 [33]. Spheroplast cells were prepared by the osmotic shock, as previously described. […] The corresponding fluorescent were measured using RF-6000PC fluorescent spectrophotometer (Shimadzu Scientific Instruments, Kyoto, Japan).
Figure 3 CRAB C1 membrane destruction caused by PapMA analogs. The concentration dependent depolarization of (A) intact CRAB C1 and its (B) spheroplast induced by PapMA and its analogs, determined using the membrane potential-sensitive fluorescent dye diSC3-5. Dye release was monitored by measuring fluorescence, at an excitation wavelength of 654 nm and an emission wavelength of 670 nm.

HEK-293 cells = assay: Cytotoxicity, WST-8 Cell Proliferation Assay; type: cell-based, human; conditions: at its MIC, 24 h and 48 h
Description: (§3) Human embryonic kidney (HEK)-293 cells, purchased from Korean cell line bank (Seoul, Korea) were cultured in Dulbecco’s modified Eagle’s medium (DMEM) (Welgene, Gyeong-san, Korea) with 10% fetal bovine serum, 1% penicillin-streptomycin at 37 °C in a humidified 5% CO2 incubator as described previously. The cytotoxicity of the six PapMA peptides and melittin was determined using WST-8 Cell Proliferation Assay Kit (Biomax Co, Ltd., Seoul, Korea), according to the manufacturer’s instructions. […] The absorbance was measured at 450 nm using a SpectraMAX microplate reader (Molecular Devices).
Figure 4 Cytotoxicity of PapMA analogs. (A) Cytotoxicity of PapMA and its analogs against HEK-293 cell. […] (B) Hemolysis activity of PapMA analogs against sRBC. The peptide was serially diluted and incubated with sRBC for 1 h with melittin as a control. Statistical analysis was performed using two-way ANOVA with Dunnett’s comparison test. The values are expressed as the mean ± SEM of three independent experiments and are statistically significant at ** p < 0.01; and *** p < 0.001. ns, not significant.

HaCaT cells = assay: Cytotoxicity, WST-8 Cell Proliferation Assay; type: cell-based, human; conditions: at its MIC, 24 h and 48 h
Description: as §3
Figure 10 Cytotoxicity of PapMA-3 (A) Cytotoxicity of PapMA-3 against HEK-293 cells at 24 h and 48 h. (B) Cytotoxicity of PapMA-3 against HaCaT cell at 24 h and 48 h. Statistical analysis was performed using two-way ANOVA with Dunnett’s comparison test. The values are expressed as the mean ± SEM of three independent experiments and are statistically significant at * p < 0.05; *** p < 0.001; ns, not significant.

A. baumannii = conditions: 50% human serum in MH medium, 16 h, 37 °C; measure of serum stability
Description: (§4) Antibacterial activity of PapMA-3 in combination with imipenem was measured against CRAB C1 in the presence of 50% human serum. The treated cells were incubated for 16 h at 37 °C, and the absorbance at 600 nm was measured using a SpectraMAX microplate reader (Molecular Devices).

CRAB C1 [4] = test system: CRAB C1
Description: as §4

[5] = MH media, 2 × 10^5 CFU·mL^−1, 37 °C, absorbance 600 nm

Q: For `CC[C@H](C)[C@H](NC(=O)CN)C(=O)NCC(=O)N[C@@H](C)C(=O)N[C@H](C(=O)N[C@@H](CC(C)C)C(=O)N[C@@H](CCCCN)C(=O)N[C@H](C(=O)N[C@@H](CC(C)C)C(=O)N[C@H](C(=O)N[C@H](C(=O)NCC(=O)N[C@@H](CC(C)C)C(=O)N1CCC[C@H]1C(=O)N[C@@H](C)C(=O)N[C@@H](CC(C)C)C(=O)N[C@H](C(=O)N[C@@H](CO)C(=O)N[C@@H](Cc1c[nH]c2ccccc12)C(=O)N[C@H](C(=O)N[C@@H](CCCCN)C(=O)N[C@@H](CCCNC(=N)N)C(=O)N[C@@H](CCCCN)C(=O)N[C@@H](CCCNC(=N)N)C(=O)N[C@@H](CCC(N)=O)C(=O)N[C@@H](CCC(N)=O)C(N)=O)[C@@H](C)CC)[C@@H](C)CC)[C@@H](C)O)[C@@H](C)O)C(C)C)C(C)C` [melittin], which “Minimum Inhibitory Concentration, A. baumannii, MH Media” value ([1]; MH media without serum, 37 °C) is on record?
A: 16 µg/mL

Q: What about the “Minimum Inhibitory Concentration, A. baumanii” value [1, 5] of the same molecule?
A: 16 µg/mL

Q: And the “Minimum Inhibitory Concentration, CRAB C1, MH Media” value (CRAB C1 [2]; MH media without serum, 37 °C)?
A: 16 µg/mL

Q: And the “Minimum Inhibitory Concentration, CRAB C1” value (CRAB C1 [2]; [5])?
A: 16 µg/mL

Q: What about the “Minimum Inhibitory Concentration, CRAB C2” value (CRAB C2) of the same molecule?
A: 16 µg/mL

Q: What about the “Minimum Inhibitory Concentration, CRAB C3” value (CRAB C3) of the same molecule?
A: 16 µg/mL

Q: And the “Minimum Inhibitory Concentration, CRAB C4” value (CRAB C4)?
A: 8 µg/mL

Q: What about the “Minimum Inhibitory Concentration, CRAB C5” value (CRAB C5) of the same molecule?
A: 16 µg/mL

Q: What about the “GM (mean MIC of Gram-negative bacterial strains)” value [3] of the same molecule?
A: 14 µg/mL

Q: And the “depolarization of intact CRAB C1” value (intact CRAB C1)?
A: 86.4%

Q: What about the “toxicity, HEK-293” value (HEK-293 cells) of the same molecule?
A: severe toxicity

Q: What about the “toxicity, HaCaT” value (HaCaT cells) of the same molecule?
A: severe toxicity

Q: And the “Minimum Inhibitory Concentration, A. baumannii, + Serum (50%)” value (A. baumannii)?
A: 128 µg/mL

Q: And the “change of antibacterial activity in the presence of 50% human serum” value (CRAB C1 [4]; 50% human serum in MH media versus MH media, E. coli, A. baumannii, CRAB C1)?
A: lost antibacterial activity considerably

Q: And the “Minimum Inhibitory Concentration, CRAB C1, + Serum (50%)” value (CRAB C1 [4]; 50% human serum in MH medium, 16 h, 37 °C, measure of serum stability)?
A: 256 µg/mL
